From patent publication US9365619B2, “IgG-binding peptide and method for detecting and purifying IgG using same” (Otsuka Chemical Co., Ltd., priority 2011, dated 2016)
Bridge positions count the residues as written; N and C are the ends. Peptide text beside a SMILES is read from it.

Molecular target: human IgG
Experiment: Surface plasmon resonance (SPR) analysis of synthetic peptide binding to human IgG
Conditions: for Kd: SPR, synthetic peptide binding to human IgG, read-out: Kd; for affinity compared with the original peptide, in words: compared with GFc-C35-3/15; for affinity compared with the parent peptide, in words: compared with GFc-C35-3/15 (T7H, N8R)
Experimental: In order to narrow down the amino acid region to be studied, a peptide in which one amino acid was deleted from each end of GFc-C35 (GFc-C35-2/16) and a peptide in which two amino acids were deleted from each end of CFc-C35 (GFc-C35-3/15) were synthesized. Among these peptides, based on the GFc-C35-3/15 synthetic peptide, the effect of the introduction of amino acid mutations on affinity was evaluated. That is, the contribution of each amino acid substitution to affinity was evaluated by synthesizing peptides substituted with frequently or occasionally observed amino acids obtained from the phage libraries and subjecting the resulting synthetic peptides to binding analysis.
Based on the synthetic peptide C35A, peptides substituted with amino acids observed at high frequency in the aforementioned phage libraries were synthesized by introducing amino acid mutations, and in a similar manner to the above, their binding to human IgG was analyzed by surface plasmon resonance (SPR) analysis to evaluate the contribution of each amino acid substitution to affinity.

Row | SMILES | Kd [µM] | affinity compared with the original peptide, in words | affinity compared with the parent peptide, in words
1 | CC(C)C[C@@H]1NC(=O)[C@H](CCC(=O)O)NC(=O)CNC(=O)[C@H](CC(N)=O)NC(=O)[C@H]([C@@H](C)O)NC(=O)[C@H](Cc2ccc(O)cc2)NC(=O)[C@H]([C@@H](C)O)NC(=O)[C@@H](NC(=O)[C@@H](N)CC(=O)O)CSSC[C@@H](C(=O)N[C@H](C(N)=O)[C@@H](C)O)NC(=O)[C@H](Cc2c[nH]c3ccccc23)NC(=O)[C@H](C(C)C)NC1=O [GFc-C35-3/15 (N10E), DCTYTNGELVWCT] (H-DCTYTNGELVWCT-NH2; disulfide 2-12; N-terminus and C-terminus assumed) | 26 | higher affinity than the original peptide | 
2 | CC(C)C[C@@H]1NC(=O)[C@H](CCC(=O)O)NC(=O)CNC(=O)[C@H](CCCNC(=N)N)NC(=O)[C@H](Cc2c[nH]cn2)NC(=O)[C@H](Cc2ccc(O)cc2)NC(=O)[C@H](C)NC(=O)[C@@H](NC(=O)[C@H](CC(=O)O)NC(=O)[C@@H]2CCCN2C(=O)CN)CSSC[C@@H](C(=O)N[C@H](C(=O)N[C@@H](Cc2c[nH]cn2)C(=O)N[C@@H](Cc2c[nH]cn2)C(N)=O)[C@@H](C)O)NC(=O)[C@H](Cc2c[nH]c3ccccc23)NC(=O)[C@H](C(C)C)NC1=O [C35A (F16H), GPDCAYHRGELVWCTHH] (H-GPDCAYHRGELVWCTHH-NH2; disulfide 4-14) | 0.0114 |  | 
3 | CC(C)C[C@@H]1NC(=O)[C@H](CC(=O)O)NC(=O)CNC(=O)[C@H](CC(N)=O)NC(=O)[C@H]([C@@H](C)O)NC(=O)[C@H](Cc2ccc(O)cc2)NC(=O)[C@H]([C@@H](C)O)NC(=O)[C@@H](NC(=O)[C@@H](N)CC(=O)O)CSSC[C@@H](C(=O)N[C@H](C(N)=O)[C@@H](C)O)NC(=O)[C@H](Cc2c[nH]c3ccccc23)NC(=O)[C@H](C(C)C)NC1=O [GFc-C35-3/15 (N10D), DCTYTNGDLVWCT] (H-DCTYTNGDLVWCT-NH2; disulfide 2-12) | 80 | more or less improved affinity | 
4 | CC(C)C[C@@H]1NC(=O)[C@H](CC(N)=O)NC(=O)CNC(=O)[C@H](CCCNC(=N)N)NC(=O)[C@H](Cc2c[nH]cn2)NC(=O)[C@H](Cc2ccc(O)cc2)NC(=O)[C@H](C)NC(=O)[C@@H](NC(=O)[C@@H](N)CC(=O)O)CSSC[C@@H](C(=O)N[C@H](C(N)=O)[C@@H](C)O)NC(=O)[C@H](Cc2c[nH]c3ccccc23)NC(=O)[C@H](C(C)C)NC1=O [GFc-C35-3/15 (T7H, N8R, T5A), DCAYHRGNLVWCT] (H-DCAYHRGNLVWCT-NH2; disulfide 2-12) | 0.25 |  | affinity-enhancing effect
5 | CC(C)C[C@@H]1NC(=O)[C@H](CC(N)=O)NC(=O)CNC(=O)[C@H](CC(N)=O)NC(=O)[C@H]([C@@H](C)O)NC(=O)[C@H](Cc2ccc(O)cc2)NC(=O)[C@H]([C@@H](C)O)NC(=O)[C@@H](NC(=O)[C@H](CC(=O)O)NC(=O)[C@@H]2CCCN2C(=O)CN)CSSC[C@@H](C(=O)N[C@H](C(=O)N[C@@H](Cc2ccccc2)C(=O)N[C@@H](Cc2c[nH]cn2)C(N)=O)[C@@H](C)O)NC(=O)[C@H](Cc2c[nH]c3ccccc23)NC(=O)[C@H](C(C)C)NC1=O [GFc-C35, GPDCTYTNGNLVWCTFH] (H-GPDCTYTNGNLVWCTFH-NH2; disulfide 4-14) | 14 |  | 
6 | CC(C)C[C@@H]1NC(=O)[C@H](CC(N)=O)NC(=O)CNC(=O)[C@H](CC(N)=O)NC(=O)[C@H](Cc2c[nH]cn2)NC(=O)[C@H](Cc2ccc(O)cc2)NC(=O)[C@H]([C@@H](C)O)NC(=O)[C@@H](NC(=O)[C@@H](N)CC(=O)O)CSSC[C@@H](C(=O)N[C@H](C(N)=O)[C@@H](C)O)NC(=O)[C@H](Cc2c[nH]c3ccccc23)NC(=O)[C@H](C(C)C)NC1=O [GFc-C35-3/15 (T7H), DCTYHNGNLVWCT] (H-DCTYHNGNLVWCT-NH2; disulfide 2-12) | 3 |  | 
7 | CC(C)C[C@@H]1NC(=O)[C@H](CC(N)=O)NC(=O)CNC(=O)[C@H](CC(N)=O)NC(=O)[C@H]([C@@H](C)O)NC(=O)[C@H](Cc2ccc(O)cc2)NC(=O)[C@H](C)NC(=O)[C@@H](NC(=O)[C@@H](N)CC(=O)O)CSSC[C@@H](C(=O)N[C@H](C(N)=O)[C@@H](C)O)NC(=O)[C@H](Cc2c[nH]c3ccccc23)NC(=O)[C@H](C(C)C)NC1=O [GFc-C35-3/15 (T5A), DCAYTNGNLVWCT] (H-DCAYTNGNLVWCT-NH2; disulfide 2-12) | 61 | highest affinity | 
8 | CC(C)C[C@@H]1NC(=O)[C@H](CC(N)=O)NC(=O)CNC(=O)[C@H](CCCNC(=N)N)NC(=O)[C@H](Cc2c[nH]cn2)NC(=O)[C@H](Cc2c[nH]c3ccccc23)NC(=O)[C@H]([C@@H](C)O)NC(=O)[C@@H](NC(=O)[C@@H](N)CC(=O)O)CSSC[C@@H](C(=O)N[C@H](C(N)=O)[C@@H](C)O)NC(=O)[C@H](Cc2c[nH]c3ccccc23)NC(=O)[C@H](C(C)C)NC1=O [GFc-C35-3/15 (T7H, N8R, Y6W), DCTWHRGNLVWCT] (H-DCTWHRGNLVWCT-NH2; disulfide 2-12) | 2 |  | reduced affinity
